IC50 data for 16 compounds are collected here from patent US7709482B2, “Polycyclic heteroaryl substituted triazoles useful as Axl inhibitors” (Rigel Pharmaceuticals, Inc., priority 2006, dated 2010).

pIC50: −log10 of the molar value. Like-named read-outs stand apart in the source and are kept apart here. Some results are limits rather than exact numbers.

The target in the test is T1, Axl (Homo sapiens, UniProt P30530).
T1 construct: endogenous in cells; host or cells: HeLa cells
T1 sequence (P30530 26-894): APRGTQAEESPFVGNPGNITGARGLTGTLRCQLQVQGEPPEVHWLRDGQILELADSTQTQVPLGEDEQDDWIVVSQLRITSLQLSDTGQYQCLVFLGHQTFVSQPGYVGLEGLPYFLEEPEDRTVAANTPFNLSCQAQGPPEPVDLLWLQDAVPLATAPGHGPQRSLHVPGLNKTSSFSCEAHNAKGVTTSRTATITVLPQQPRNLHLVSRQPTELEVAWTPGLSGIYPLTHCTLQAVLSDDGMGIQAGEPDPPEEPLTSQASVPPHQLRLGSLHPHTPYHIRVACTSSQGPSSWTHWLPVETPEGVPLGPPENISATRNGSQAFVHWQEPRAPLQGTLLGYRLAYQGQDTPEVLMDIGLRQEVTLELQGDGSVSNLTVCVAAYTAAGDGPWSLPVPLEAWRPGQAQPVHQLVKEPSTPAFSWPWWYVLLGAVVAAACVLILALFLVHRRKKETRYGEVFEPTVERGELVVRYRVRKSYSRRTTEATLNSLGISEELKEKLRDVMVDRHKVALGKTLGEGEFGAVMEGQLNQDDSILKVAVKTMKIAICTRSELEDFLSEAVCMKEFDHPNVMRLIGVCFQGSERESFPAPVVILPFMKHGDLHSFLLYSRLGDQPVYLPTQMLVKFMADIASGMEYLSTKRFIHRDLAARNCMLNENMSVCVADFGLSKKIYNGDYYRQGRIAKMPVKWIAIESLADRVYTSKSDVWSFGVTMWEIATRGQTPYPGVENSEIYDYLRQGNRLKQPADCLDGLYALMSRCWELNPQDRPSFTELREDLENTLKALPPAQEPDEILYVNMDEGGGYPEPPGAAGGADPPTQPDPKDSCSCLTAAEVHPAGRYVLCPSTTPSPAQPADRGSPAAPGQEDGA
In words: Phospho-Akt In-Cell Western Assay (inhibition of Axl activity after Axl-antibody cross-linking). The format is cell-based. The conditions noted are these: read-out: IC50. On the procedure:
The compounds of the invention were tested in the following assay for their ability to inhibit Axl activity.
Phospho-Akt In-Cell Western Assay
• Cell culture plate: 96 well assay plate (Corning 3610), white, clear bottom, tissue-culture treated. • Cells: Hela cells. • Starvation medium: For Axl stimulation: 0.5% FCS (fetal calf serum) in DMEM, plus Axl/Fc (extracellular domain of AXL fused to immunoglobulin Fc region) (R&D, 154-AL) 500 ng/mL. • For EGF (epidermal growth factor) stimulation: 0.5% FCS in DMEM (Dulbecco's modified Eagles medium). • Poly-L-Lysine 0.01% solution (the working solution): […], dilute In PBS (phosphate buffered saline). • Axl antibody cross-linking: • 1st: Mouse anti-Axl (R&D, MAB154). • 2nd: Biotin-SP-conjugated AffiniPure goat anti-mouse IgG (H+ L) (Jackson ImmunoResearch #115-065-003). • Fixing buffer: 4% formaldehyde in PBS. • Wash buffer: 0.1% TritonX-100 in PBS. • Quenching buffer: 3% H2O2, 0.1% Azide in wash buffer, Azide and hydrogen peroxide (H2O2) are added fresh. • Blocking buffer: 5% BSA in TBST (tris buffered saline plus 0.1% Tween 20). • Primary antibody: Rabbit anti-human Phospho-Akt antibody (Cell Signaling 9271): 1×250 diluted in blocking buffer. • Secondary antibody: HRP (horse radish peroxidase)-conjugated Goat anti-Rabbit secondary, stock solution: Jackson ImmunoResearch (Goat anti-Rabbit HRP, #111-035-144) 1:1 diluted in glycerol, store at −20° C. The working solution: 1×2000 dilution of stock in blocking buffer. • Chemiluminescent working solution (Pierce, 37030): SuperSignal ELISA (enzyme linked immunosorbant assay) Pico Chemiluminescent substrate. • Crystal Violet solution: Stock: 2.5% Crystal violet in methanol, filtered and kept at ambient temperature. The working solution: dilute the stock 1:20 with PBS immediately before use. • 10% SDS: working solution: 5% SDS (sodium dodecylsulfate), diluted in PBS Methods: Day 1:
A 96 well TC (tissue culture treated) plate was coated with 10 μg/mL poly-L-Lysine at 37° C. for 30 min, washed twice with PBS, and air-dried for 5 minutes before cells were added. Hela cells were seeded at 10,000 cells/well and the cells were starved in 100 μL starvation medium containing Axl/Fc for 24 hrs.
The cells were pre-treated with test compounds by adding 100 μL of 2× test compound to the starvation medium on the cells. The cells were incubated at 37° C. for 1 hr before stimulation.
The resulting mix was warmed to 37° C. 50 μL of 5×Axl 1st/2nd of antibody cluster was added to the cells and the cells were incubated at 37° C. for 5 min.
After 5 minutes stimulation, the plate was flicked to remove medium and the plate was tapped onto paper towels. Formaldehyde (4.0% in PBS, 100 μL) was added to fix the cells and the cells were incubated at ambient temperature for 20 min without shaking.
The cells were washed with a plate washer buffer to remove the formaldehyde solution. The plate was flicked to removed excess wash buffer and tapped onto paper towels. Quenching buffer (100 μL) was added to each well and the cells were incubated at ambient temperature for 20 minutes without shaking.
The cells were washed with a plate washer buffer to remove the quenching buffer. Blocking buffer (100 μL) was added and the cells were incubated at ambient temperature for at least an hour with gentle shaking.
The cells were washed with a plate washer buffer and diluted primary antibody (50 μL) was added to each well (blocking buffer was added to the negative control wells instead). The plates were incubated overnight at 4° C. with gentle shaking.
The wash buffer was removed, diluted secondary antibody (100 μL) was added, and the cells were incubated at ambient temperature for 1 hour with gentle shaking. During the incubation, the chemiluminescent reagent was brought to ambient temperature.
The secondary antibody was removed by washing the cells 1× with wash buffer, 1× with PBS by plate washer.

Where [1] appears, read: inhibition of Axl activity, Table 1, compounds of formula (Ia).
The mark [2] stands for this setting: Hela cells, phospho-Akt chemiluminescence normalized to relative cell number, compounds of formula (Ia), Table 1.
[3] abbreviates: Hela cells, phospho-Akt chemiluminescence normalized to relative cell number, compounds of formula (Ib), Table 2.

Regarding `CN(C)[C@@H]1CCN(c2ccc(Nc3nc(N)n(-c4cc5c(nn4)-c4ccccc4CCC5)n3)cc2F)C1` [Compound 180, 1-(6,7-dihydro-5H-benzo[6,7]cyclohepta[1,2-c]pyridazin-3-yl)-N^3-(3-fluoro-4-(3-(3R)-dimethylaminopyrrolidin-1-yl)phenyl)-1H-1,2,4-triazole-3,5-diamine], the pIC50 under setting [1] was above 6.00.
On the same count and under the same terms, the result for `Nc1nc(Nc2ccc(I)cc2)nn1-c1cc2c(nn1)-c1ccccc1CCC2` [Compound 156, 1-(6,7-dihydro-5H-benzo[6,7]cyclohepta[1,2-c]pyridazin-3-yl)-N^3-(4-iodophenyl)-1H-1,2,4-triazole-3,5-diamine] reads below 4.70.
For `CC(C)N1CCN(C2CCN(c3ccc(Nc4nc(N)n(-c5cc6c(nn5)-c5ccccc5CCC6)n4)cc3F)CC2)CC1` [Compound 80, 1-(6,7-dihydro-5H-benzo[6,7]cyclohepta[1,2-c]pyridazin-3-yl)-N^3-(3-fluoro-4-(4-(4-isopropylpiperazin-1-yl)piperidin-1-yl)phenyl)-1H-1,2,4-triazole-3,5-diamine], the pIC50 under setting [2] is above 6.00.
`CC1CN(C2CCCC2)CCN1c1ccc(Nc2nc(N)n(-c3cc4c(nn3)-c3ccccc3CCC4)n2)cc1` (stereo not shown) [Compound 16, 1-(6,7-dihydro-5H-benzo[6,7]cyclohepta[1,2-c]pyridazin-3-yl)-N^3-(4-(4-cyclopentyl-2-methylpiperazin-1-yl)phenyl)-1H-1,2,4-triazole-3,5-diamine]: the pIC50 under setting [2] was above 6.00.
`Nc1nc(Nc2ccc(N3CCC(CN4CCCC4)CC3)c(F)c2)nn1-c1cc2c(nn1)-c1ccccc1CCC2` [Compound 124, 1-(6,7-dihydro-5H-benzo[6,7]cyclohepta[1,2-c]pyridazin-3-yl)-N^3-(3-fluoro-4-(4-(pyrrolidinylmethyl)-piperidinyl)phenyl)-1H-1,2,4-triazole-3,5-diamine]: the pIC50 under setting [2] was above 6.00.
Turning to `COc1cc2ncnc(-n3nc(Nc4cnc5c(c4)CC4(CCC5)OCCO4)nc3N)c2cc1OC` [Compound 239, 1-(6,7-dimethoxy-quinazolin-4-yl)-N^3-(5,7,8,9-tetrahydrospiro[cyclohepta[b]pyridine-6,2′-[1,3]dioxolane]-3-yl)-1H-1,2,4-triazole-3,5-diamine], the pIC50 under setting [1] is 5.00 to 6.00.
Same read-out and setting: as for `Nc1nc(Nc2ccc(C=CCN3CCCC3)cc2)nn1-c1cc2c(nn1)-c1ccccc1CCC2` [Compound 199, 1-(6,7-dihydro-5H-benzo[6,7]cyclohepta[1,2-c]pyridazin-3-yl)-N^3-(4-(pyrrolidin-1-ylprop-1-enyl)phenyl)-1H-1,2,4-triazole-3,5-diamine], the figure is above 6.00; as for `CCN(CC)C1CCN(c2ccc(Nc3nc(N)n(-c4cc5c(nn4)-c4ccccc4CCC5)n3)cn2)C1` (stereo not shown) [Compound 133, 1-(6,7-dihydro-5H-benzo[6,7]cyclohepta[1,2-c]pyridazin-3-yl)-N^3-(6-(3-diethylaminopyrrolidin-1-yl)pyridin-3-yl)-1H-1,2,4-triazole-3,5-diamine], above 6.00.
For the compound `CN1CCc2cc(-n3nc(Nc4ccc(OCCN5CCCC5)c(F)c4)nc3N)nnc2-c2ccccc21` [Compound 42, 1-(7-methyl-6,7-dihydro-5H-benzo[2,3]azepino[4,5-c]pyridazin-3-yl)-N^3-(3-fluoro-4-(2-(pyrrolidin-1-yl)ethoxy)phenyl)-1H-1,2,4-triazole-3,5-diamine], under setting [2], the pIC50 is above 6.00.
Take `C[C@H]1CN(c2ccc(Nc3nc(N)n(-c4cc5c(nn4)-c4ccccc4CCC5)n3)cn2)CCN1CC1CC1` [Compound 202, 1-(6,7-dihydro-5H-benzo[6,7]cyclohepta[1,2-c]pyridazin-3-yl)-N^3-(2-(3-(S)-methyl-4-cyclopropylmethylpiperazin-1-yl)pyridine-5-yl)-1H-1,2,4-triazole-3,5-diamine]: the negative-log IC50 (pIC50) under setting [1] is above 6.00.
In the case of `CCN(CC)C1CCN(c2ccc(Nc3nc(N)n(C4=Nc5ccccc5Sc5ccccc54)n3)cc2F)CC1` [Compound 51, 1-((Z)-dibenzo[b,f][1,4]thiazepin-11-yl)-N^3-(3-fluoro-4-(4-diethylaminopiperidin-1-yl)phenyl)-1H-1,2,4-triazole-3,5-diamine], under setting [2], the pIC50 is 5.00 to 6.00.
For the compound `Nc1nc(Nc2ccc(N3CCC(N4CCCC4)C3)c(F)c2)n(-c2cc3c(nn2)-c2ccccc2CCC3)n1` (stereo not shown) [Compound 174, 1-(6,7-dihydro-5H-benzo[6,7]cyclohepta[1,2-c]pyridazin-3-yl)-N^5-(3-fluoro-(4-(3-pyrrolidin-1-yl)pyrrolidin-1-yl)phenyl)-1H-1,2,4-triazole-3,5-diamine], the pIC50 under setting [3] was 5.00 to 6.00.
For `Nc1nc(Nc2ccc(/C=C/CN3CCCCC3)nc2)nn1-c1cc2c(nn1)-c1ccccc1CCC2` [Compound 138, 1-(6,7-dihydro-5H-benzo[6,7]cyclohepta[1,2-c]pyridazin-3-yl)-N^3-(6-(3-piperidin-1-yl-(E)-propenyl)pyridin-3-yl)-1H-1,2,4-triazole-3,5-diamine], the pIC50 under setting [1] was above 6.00.
As for `Nc1nc(Nc2ccc(CN3CCN(C4CCCC4)CC3)cc2)n(-c2cc3c(nn2)-c2ccccc2CCC3)n1` [Compound 166, 1-(6,7-dihydro-5H-benzo[6,7]cyclohepta[1,2-c]pyridazin-3-yl)-N^5-(4-((4-cyclopentylpiperazinyl)methyl)phenyl)-1H-1,2,4-triazole-3,5-diamine], the pIC50 under setting [3] is 5.00 to 6.00.
Regarding `Nc1nc(Nc2cnc3c(c2)CCC(N2CCCC2)CC3)nn1-c1cc2c(nn1)-c1ccccc1CCC2` (stereo not shown) [Compound 152, 1-(6,7-dihydro-5H-benzo[6,7]cyclohepta[1,2-c]pyridazin-3-yl)-N^3-((7-pyrrolidin-1-yl)-6,7,8,9-tetrahydro-5H-cyclohepta[b]pyridine-3-yl)-1H-1,2,4-triazole-3,5-diamine], the pIC50 under setting [1] was above 6.00.
With `Nc1nc(Nc2ccc(C(=O)N3CCN(C4CCCC4)CC3)cc2)nn1-c1cc2c(nn1)-c1ccccc1CCC2` [Compound 10, 1-(6,7-dihydro-5H-benzo[6,7]cyclohepta[1,2-c]pyridazin-3-yl)-N^3-(4-(4-(cyclopentyl)piperazin-1-ylcarbonyl)phenyl)-1H-1,2,4-triazole-3,5-diamine], the pIC50 under setting [2] is 5.00 to 6.00.

Broadly, the pIC50 is the negative decadic logarithm of the IC50, by convention in mol/L.
